Assay results taken from ChEMBL document CHEMBL5331113 (J Med Chem, 2023).
Blank lines part the entries; values can stand above or below the compound they belong to. Activity calls are given as the source filed them. No cut-off for these calls is given here.

What was measured:
[1] = biological target: T1, Succinate receptor 1 (Homo sapiens) (UniProt Q9BXA5); details: Flp-In-T-REx-293, filed as agonist, time 30.0 min
T1 sequence (whole entry): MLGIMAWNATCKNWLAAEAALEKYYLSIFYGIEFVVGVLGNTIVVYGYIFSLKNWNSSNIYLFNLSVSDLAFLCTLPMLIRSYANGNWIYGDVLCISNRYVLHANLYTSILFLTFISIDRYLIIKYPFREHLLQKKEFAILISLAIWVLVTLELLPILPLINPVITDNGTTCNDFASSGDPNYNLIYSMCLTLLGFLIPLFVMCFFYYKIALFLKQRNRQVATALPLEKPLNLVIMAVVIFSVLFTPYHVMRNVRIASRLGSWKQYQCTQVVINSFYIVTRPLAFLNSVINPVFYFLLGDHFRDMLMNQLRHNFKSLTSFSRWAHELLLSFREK

HEK293T [2] = experiment: Antagonist activity at mouse succinate receptor 1 N181.31E/K2697.32N/G84EL1W mutant expressed in HEK293T cells co-transfected with Galphai-Rluc8/Ggamma8-GFP2/Gbeta3 assessed as inhibition of succinate induced G protein activation incubated for 5 mins by luminescence based BRET assay; assay type: cell-based; details: filed as antagonist
HEK293T [3] = experiment: Antagonist activity at mouse succinate receptor 1 N181.31E/K2697.32N mutant expressed in HEK293T cells co-transfected with Galphai-Rluc8/Ggamma8-GFP2/Gbeta3 assessed as inhibition of succinate induced G protein activation incubated for 5 mins by luminescence based BRET assay; assay type: cell-based
cells = details: Mus musculus, HEK-293T, 5 min, read-out: pEC50 (converted)
[4] = Competitive binding affinity to humanized mouse succinate receptor 1 N181.31E/K2697.32N/G84EL1W mutant assessed as inhibition constant incubated for 5 mins in the presence of TUG-2384 by BRET assay
Succinate receptor 1 = biological target: T2, Succinate receptor 1 (Homo sapiens, UniProt Q9BXA5); experiment: Competitive binding affinity to N-terminal Nluc-tagged human succinate receptor 1 expressed in Flp-In-T-REx-293 cells assessed as inhibition constant incubated for 5 mins in the presence of TUG-2465 by BRET assay; assay type: cell-based
T2 sequence (Q9BXA5 whole entry): T1 sequence (whole entry)

- pEC50 [1]: Active
Compound: CC(C)(C)OC(=O)NCCCCCCOc1ccc(-c2cccc(C(=O)Nc3ccccc3CC(=O)O)c2)cc1

Compound: CN1CCN(Cc2ccc(-c3cccc(C(=O)Nc4ccccc4CC(=O)O)c3)cc2)CC1
- Activity (HEK293T [2]): Active
- Activity (HEK293T [3]): inactive

- EC50 (cells): 52.5 µM
Compound: O=C(O)CCC(=O)O [SUCCINIC ACID]

- pKi [4]: < 4.5
- Ki (Succinate receptor 1): 7.94 µM
Compound: O=C(O)CCc1cccc(Oc2ccc(Oc3cccc4cnccc34)cc2C(F)(F)F)c1
